{"source": "patent US20140271926A1", "about": "“METHODS OF USE OF GLUTAMINE SYNTHETASE INHIBITORS” (CALIFORNIA INSTITUTE OF TECHNOLOGY, priority 2013, published 2014)", "key": {"FlagCRBN [1]": {"target": "T1, FlagCRBN (Homo sapiens, UniProt Q96SW2)", "T1 construct": "expressed in transfected cells", "T1 sequence (Q96SW2 whole entry)": "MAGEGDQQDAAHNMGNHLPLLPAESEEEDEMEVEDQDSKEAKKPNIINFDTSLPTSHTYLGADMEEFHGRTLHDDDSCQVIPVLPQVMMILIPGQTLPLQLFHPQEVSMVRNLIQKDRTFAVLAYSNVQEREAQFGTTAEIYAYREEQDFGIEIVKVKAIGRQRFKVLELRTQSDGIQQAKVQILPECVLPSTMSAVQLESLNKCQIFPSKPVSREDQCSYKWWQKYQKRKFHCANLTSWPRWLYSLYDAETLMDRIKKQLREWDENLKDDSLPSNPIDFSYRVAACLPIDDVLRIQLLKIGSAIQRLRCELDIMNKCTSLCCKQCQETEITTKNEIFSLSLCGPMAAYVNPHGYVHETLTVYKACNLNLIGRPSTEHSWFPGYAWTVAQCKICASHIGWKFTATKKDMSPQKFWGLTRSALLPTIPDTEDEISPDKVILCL", "test": "SILAC quantitative mass spectrometry of FlagCRBN immunoprecipitates, thalidomide vs DMSO", "assay_type": "cell-based", "conditions": "50 μM thalidomide 4 hours vs DMSO", "protocol": "To identify IMiD-modulated substrates of CRBN, a human embryonic kidney (HEK) 293T cell line was generated that stably expresses CRBN with a Flag tag appended to its amino terminus (^FlagCRBN). ^FlagCRBN cells were grown in medium formulated with isotopically light lysine and arginine (light medium) or in medium formulated with isotopically heavy lysine and arginine (heavy medium). Cells growing in heavy medium were treated with 50 μM thalidomide for 4 hours, whereas cells growing in light medium were treated with DMSO. ^FlagCRBN immunoprecipitates were prepared in parallel, mixed, and analyzed by quantitative mass spectrometry. […] Essentially identical results were obtained in a label swap experiment. […] (Lopez-Girona et al., 2012, supra and Zhu et al. 2011 supra.)\nPreparation of ^FlagCRBN for mass spectrometry (MS). SILAC-labeled cultures of the stable cell lines were grown as described Lee et al., 2011, Molecular & Cellular Proteomics, 10: M110 006460,the entire contents of which are herein incorporated by reference. Briefly, HEK293T cells, stably expressing ^FlagCRBN, were cultured in medium formulated with isotopically light lysine and arginine (‘light’ medium) or in medium formulated with isotopically heavy lysine and arginine (‘heavy’ medium). The cells growing in ‘heavy’ medium were treated with thalidomide (a final concentration of 50 μM) for 4 hours, while the cells growing in ‘light’ medium were treated with DMSO. SILAC experiments were repeated after swapping the SILAC labels in which the cells cultured in ‘light’ and ‘heavy’ medium were treated with thalidomide and DMSO, respectively. The ^FlagCRBN immunoprecipitates were prepared, mixed, and analyzed by quantitative mass spectrometry.\nMS data analysis. Thermo raw files were processed and searched with MaxQuant (v. 1.4.1.2), as described in Cox et al., 2008, Nat. Biotechnol. 26:1367; and Cox et al., 2011, J. of Proteome Research, 10:1794, the entire contents of both of which are herein incorporated by reference. Trypsin was specified as the digestion enzyme with up to two missed cleavages. Protein N-terminal acetylation (+42.0106) and methionine oxidation (+15.9949) were specified as variable modifications. Carbamidomethylation of cysteine (+57.0215) was specified as a fixed modification. Arg6 ([…]) and Lys8 (+8.0142) were specified as the SILAC labels. Requantification and match between runs were enabled. Precursor ion tolerance was 7 ppm and fragment ion tolerance was 0.5 Da. All human Uniprot entries were searched (148298 sequences, downloaded on 05Dec12) along with a contaminant database containing proteins such as keratin and trypsin (247 sequences). (Apweiler et al., 2013, Nucleic Acids Research, 41: D43, the entire contents of which are herein incorporated by reference.) Additionally, to determine the false discovery rate, a decoy database was constructed by reversing the target database. While no minimum score was specified, the protein and peptide level false discovery rates were fixed at 1% and we required that all proteins reported were identified in both biological replicates by at least two peptides.\nProteins were quantified by first calculating the median of all peptide ratios within each biological replicate and then calculating the mean of the two biological replicate ratios. Only peptides uniquely assignable to the protein group were used for quantification. […] Individual ratio measurement error was estimated using pooled variance and overall ratio standard error was calculated using bootstrap analysis. […] Q-values were calculated from the p-values using the Storey method for calculating false discovery rates as described in Storey et al., 2002, J. Roy Stat. Soc. B., 64:479, the entire contents of which is herein incorporated by reference. A q-value of 0.05 was used as a threshold for significance."}, "FlagCRBN [2]": {"target": "T1, FlagCRBN", "test": "FlagCRBN immunoprecipitation from stable HEK293T cells, immunoblot for CRL4CRBN subunits and GS", "assay_type": "cell-based", "conditions": "FIG. 2", "protocol": "To confirm the results of the quantitative mass spectrometry, ^FlagCRBN was immunoprecipitated from the stable HEK293T cell line and immunoblotted for CRL4^CRBN subunits and GS. As expected, thalidomide enhanced recovery of GS but had no effect on binding of DDB1 or CUL4A (FIG. 2). In order to confirm this finding, endogenous proteins expressed in cells were analyzed that are responsive to the therapeutic effects of IMiDs. For this purpose, endogenous CRBN as immunoprecipitated from MM.1S multiple myeloma cells.\nImmunoprecipitation. Cells were lysed in immunoprecipitation buffer (10 mM Tris [pH 7.5], 150 mM NaCl, 1% Triton X-100) containing a protease inhibitor cocktail, and immunoprecipitated with the indicated antibodies, such as anti-CRBN antibody for 2-4 hours at 4° C., followed by incubation with protein G sepharose 4 Fast Flow (GE Healthcare) for 1 hour at 4° C. Immunoprecipitated proteins were resolved by SDS/PAGE and analyzed by immunoblotting with the indicated antibodies."}}, "data": [{"smiles": "O=C1CCC(N2C(=O)c3ccccc3C2=O)C(=O)N1", "note": "(stereo not shown) [thalidomide, Thalidomide]", "values": [{"measurement": "recovery of FlagCRBN, subunits of CRL4 (CUL4, DDB1, RBX1) and subunits of CSN", "setting": "FlagCRBN [1]; FIG. 1", "result": "recovered in equal amounts"}, {"measurement": "recovery of glutamine synthetase (GS) in FlagCRBN immunoprecipitates", "setting": "FlagCRBN [1]; FIG. 1", "result": "recovered in greater amounts"}, {"measurement": "+/−Thalidomide Ratio", "setting": "FlagCRBN [1]; protein ATP5A1", "result": 0.7541}, {"measurement": "+/−Thalidomide Ratio", "setting": "FlagCRBN [1]; protein ATP5B", "result": 0.6236}, {"measurement": "+/−Thalidomide Ratio", "setting": "FlagCRBN [1]; protein BAG2", "result": 0.6303}, {"measurement": "+/−Thalidomide Ratio", "setting": "FlagCRBN [1]; protein BOLA2", "result": 0.5989}, {"measurement": "+/−Thalidomide Ratio", "setting": "FlagCRBN [1]; protein C11orf84", "result": 0.7032}, {"measurement": "+/−Thalidomide Ratio", "setting": "FlagCRBN [1]; protein C12orf23", "result": 0.6718}, {"measurement": "+/−Thalidomide Ratio", "setting": "FlagCRBN [1]; protein C22orf28", "result": 0.7109}, {"measurement": "+/−Thalidomide Ratio", "setting": "FlagCRBN [1]; protein CCT5", "result": 0.8584}, {"measurement": "+/−Thalidomide Ratio", "setting": "FlagCRBN [1]; protein CCT6A", "result": 0.8483}, {"measurement": "+/−Thalidomide Ratio", "setting": "FlagCRBN [1]; protein CCT8", "result": 0.8368}, {"measurement": "+/−Thalidomide Ratio", "setting": "FlagCRBN [1]; protein CLNS1A", "result": 0.627}, {"measurement": "+/−Thalidomide Ratio", "setting": "FlagCRBN [1]; protein CMBL", "result": 0.7463}, {"measurement": "+/−Thalidomide Ratio", "setting": "FlagCRBN [1]; protein COMT", "result": 0.5482}, {"measurement": "+/−Thalidomide Ratio", "setting": "FlagCRBN [1]; protein DDX5, DKFZp686J01190", "result": 0.6321}, {"measurement": "+/−Thalidomide Ratio", "setting": "FlagCRBN [1]; protein DKFZp686K23100, MATR3, DKFZp686K0542", "result": 0.526}, {"measurement": "+/−Thalidomide Ratio", "setting": "FlagCRBN [1]; protein FUS", "result": 0.5807}, {"measurement": "+/−Thalidomide Ratio", "setting": "FlagCRBN [1]; protein GLNS (glutamine synthetase)", "result": 2.508}, {"measurement": "+/−Thalidomide Ratio", "setting": "FlagCRBN [1]; protein GLUD1, GLUD2", "result": 0.7935}, {"measurement": "+/−Thalidomide Ratio", "setting": "FlagCRBN [1]; protein HNRNPA2B1", "result": 0.4533}, {"measurement": "+/−Thalidomide Ratio", "setting": "FlagCRBN [1]; protein HNRNPAB", "result": 0.569}, {"measurement": "+/−Thalidomide Ratio", "setting": "FlagCRBN [1]; protein HNRNPC, hCG_1641229, HNRPCL1, HNRNPCL1, LOC440563, LOC649330", "result": 0.4229}, {"measurement": "+/−Thalidomide Ratio", "setting": "FlagCRBN [1]; protein HNRNPK, HNRPK", "result": 0.5905}, {"measurement": "+/−Thalidomide Ratio", "setting": "FlagCRBN [1]; protein HNRNPL", "result": 0.44}, {"measurement": "+/−Thalidomide Ratio", "setting": "FlagCRBN [1]; protein HNRNPM, ORF, HNRPM", "result": 0.6977}, {"measurement": "+/−Thalidomide Ratio", "setting": "FlagCRBN [1]; protein HNRNPU, HNRPU", "result": 0.7137}, {"measurement": "+/−Thalidomide Ratio", "setting": "FlagCRBN [1]; protein HSP90AA1", "result": 0.7454}, {"measurement": "+/−Thalidomide Ratio", "setting": "FlagCRBN [1]; protein HSP90AB1", "result": 0.79}, {"measurement": "+/−Thalidomide Ratio", "setting": "FlagCRBN [1]; protein IMPDH2", "result": 0.8138}, {"measurement": "+/−Thalidomide Ratio", "setting": "FlagCRBN [1]; protein IVNS1ABP", "result": 0.6131}, {"measurement": "+/−Thalidomide Ratio", "setting": "FlagCRBN [1]; protein KIF11", "result": 0.6737}, {"measurement": "+/−Thalidomide Ratio", "setting": "FlagCRBN [1]; protein LUC7L2", "result": 0.7578}, {"measurement": "+/−Thalidomide Ratio", "setting": "FlagCRBN [1]; protein PDIA6", "result": 0.8515}, {"measurement": "+/−Thalidomide Ratio", "setting": "FlagCRBN [1]; protein PIH1D1", "result": 0.5153}, {"measurement": "+/−Thalidomide Ratio", "setting": "FlagCRBN [1]; protein PRPS1", "result": 0.7264}, {"measurement": "+/−Thalidomide Ratio", "setting": "FlagCRBN [1]; protein PRPS2", "result": 0.6445}, {"measurement": "+/−Thalidomide Ratio", "setting": "FlagCRBN [1]; protein PUF60", "result": 0.5471}, {"measurement": "+/−Thalidomide Ratio", "setting": "FlagCRBN [1]; protein RBM39, DKFZp781C0423, DKFZp686A11192, DKFZp781I1140, DKFZp686C17209", "result": 0.6182}, {"measurement": "+/−Thalidomide Ratio", "setting": "FlagCRBN [1]; protein RBMX, RBMXL1", "result": 0.5004}, {"measurement": "+/−Thalidomide Ratio", "setting": "FlagCRBN [1]; protein RIOK1", "result": 0.6187}, {"measurement": "+/−Thalidomide Ratio", "setting": "FlagCRBN [1]; protein RPL26, KRBA2, RPL26L1", "result": 0.698}, {"measurement": "+/−Thalidomide Ratio", "setting": "FlagCRBN [1]; protein RPL27", "result": 0.7987}, {"measurement": "+/−Thalidomide Ratio", "setting": "FlagCRBN [1]; protein RPL35, LOC154880", "result": 0.6839}, {"measurement": "+/−Thalidomide Ratio", "setting": "FlagCRBN [1]; protein RPS3A", "result": 0.7607}, {"measurement": "+/−Thalidomide Ratio", "setting": "FlagCRBN [1]; protein RPS8", "result": 0.8186}, {"measurement": "+/−Thalidomide Ratio", "setting": "FlagCRBN [1]; protein RPS25", "result": 0.7348}, {"measurement": "+/−Thalidomide Ratio", "setting": "FlagCRBN [1]; protein RPSA, RPSAP58, LAMR1P15", "result": 0.8005}, {"measurement": "+/−Thalidomide Ratio", "setting": "FlagCRBN [1]; protein RUVBL1", "result": 0.7099}, {"measurement": "+/−Thalidomide Ratio", "setting": "FlagCRBN [1]; protein RUVBL2", "result": 0.6927}, {"measurement": "+/−Thalidomide Ratio", "setting": "FlagCRBN [1]; protein SF3A3", "result": 0.5959}, {"measurement": "+/−Thalidomide Ratio", "setting": "FlagCRBN [1]; protein SFRS11, SRSF11", "result": 0.573}, {"measurement": "+/−Thalidomide Ratio", "setting": "FlagCRBN [1]; protein SNRPD1", "result": 0.6168}, {"measurement": "+/−Thalidomide Ratio", "setting": "FlagCRBN [1]; protein SNRPD3", "result": 0.6583}, {"measurement": "+/−Thalidomide Ratio", "setting": "FlagCRBN [1]; protein SNRPF", "result": 0.6071}, {"measurement": "+/−Thalidomide Ratio", "setting": "FlagCRBN [1]; protein SNRPN, SNRPB", "result": 0.6605}, {"measurement": "+/−Thalidomide Ratio", "setting": "FlagCRBN [1]; protein SPIN1", "result": 0.6689}, {"measurement": "+/−Thalidomide Ratio", "setting": "FlagCRBN [1]; protein SRSF3, SFRS3", "result": 0.651}, {"measurement": "+/−Thalidomide Ratio", "setting": "FlagCRBN [1]; protein STK38", "result": 0.7445}, {"measurement": "+/−Thalidomide Ratio", "setting": "FlagCRBN [1]; protein TCP1", "result": 0.8927}, {"measurement": "+/−Thalidomide Ratio", "setting": "FlagCRBN [1]; protein TRIM21", "result": 0.7125}, {"measurement": "+/−Thalidomide Ratio", "setting": "FlagCRBN [1]; protein TXN", "result": 0.7037}, {"measurement": "+/−Thalidomide Ratio", "setting": "FlagCRBN [1]; protein U2AF2", "result": 0.6123}, {"measurement": "+/−Thalidomide Ratio", "setting": "FlagCRBN [1]; protein VCP, DKFZp434K0126", "result": 0.7702}, {"measurement": "+/−Thalidomide Ratio", "setting": "FlagCRBN [1]; protein WDR77", "result": 0.5895}, {"measurement": "binding of DDB1 or CUL4A to FlagCRBN", "setting": "FlagCRBN [2]", "result": "no effect"}, {"measurement": "recovery of GS with FlagCRBN", "setting": "FlagCRBN [2]", "result": "enhanced"}]}]}
